Patent publication US20040068015A1, “Remedies for diseases due to stenotic lesions of blood vessel” (priority 2003, published 2004)

Columns and labels:
[1] = system: smooth muscle cells; settings: literature report; cited from earlier work
[2] = system: blood vessel smooth muscle cells; assay: Effect to inhibit growth of blood vessel smooth muscle cells (BrdU labeling index), hamster blood vessel stricture model; type: in vivo; settings: oral, twice a day, 20 mg/kg/day; 7th day after the injury
Method: (§1) Preparation of Hamster Blood Vessel Stricture Model
(§2) Male hamsters (Gold, SLC, Japan; 40 to 50 g) were allowed to feed on 0.5% cholesterol feed for 4 weeks to increase the LDL value to 4 to 6 times higher than that of normal hamsters. Each hamster was anesthetized with pentobarbital (50 mg/kg), and its carotid inner membrane was peeled using 2FG catheter (Portex) whose tip had been roughly shaved.
(2) Effect to Inhibit Growth of Blood Vessel Smooth Muscle Cells
The drug to be tested, N-hydroxy-5-ethoxymethyloxy-2(S)-methyl-4(S)-(4-phenoxybenzoyl)aminopentaneamide represented by the above formula (II), was orally administered once before the blood vessel inner membrane injury, and then it was orally administered twice a day (20 mg/kg/day). 5-Bromo-2-deoxy-uridine (BrdU: 50 mg/kg) was injected by subcutaneous injection 1, 8, 16 or 24 hours before taking out the inner membrane-injured carotid from each hamster.
After the carotid injury, the injured blood vessels were taken out on the 1st and 7th days to prepare frozen samples. BrdU positive cells were stained with a mouse monoclonal antibody (SIGMA) and then with a peroxidase-conjugated goat anti-mouse IgG antibody and detected with diaminobenzidine (DAB). […] The BrdU labeling index of intermediate membrane and newly formed inner membrane was calculated by the following formula: [formula]

[3] = Toxicity, single oral administration using rats; type: in vivo
Method: The toxicity of the compounds of the present invention is very low and therefore, the compounds may be considered safe for pharmaceutical use. For example, the minimal lethal dose by single oral administration of N-hydroxy-5-ethoxymethyloxy-2(S)-methyl-4(S)-(4-phenoxybenzoyl)aminopentanamide using rats was 2000 mg/kg.

[4] = system: blood vessel smooth muscle cells; assay: Effect to inhibit migration of blood vessel smooth muscle cells (histone H1 (+) cells), hamster blood vessel stricture model; type: in vivo; settings: oral, twice a day, 20 mg/kg/day; 3, 5 and 7th days after carotid injury; in comparison with the control group
Method: as §1, §2
(3) Effect to Inhibit Migration of Blood Vessel Smooth Muscle Cells
Administration of the drug to be tested and BrdU was carried out in the same manner in the above (2).
The injured blood vessels were taken out from the hamsters on 3, 5 and 7th days after the carotid injury. Each blood vessel was washed with PBS and put into 0.3% hydrogen peroxide/cold methanol solution. The sample was incubated for 45 minutes in 5% goat serum diluted with 1% BSA-containing PBS to prevent nonselective linkage of protein. This was incubated for 60 minutes in 1% BSA-containing PBS using a histone H1 monoclonal antibody. Thereafter, each section was incubated for 45 minutes using 1% goat anti-mouse IgG antibody diluted with 1% BSA-containing PBS. By measuring the number of histone H1 (+) cells (cells/mm^2), migration of smooth muscle cells from intermediate membrane to inner membrane was evaluated.

Compound	growth of smooth muscle cells [1]	migration of smooth muscle cells [1]	inhibition of growth of blood vessel smooth muscle cells (BrdU labeling index) [2]	minimal lethal dose [3] [mg/kg]	number of smooth muscle cells on the surface of inner membrane (migration; histone H1 (+) cells) [4]
CNC(=O)[C@H](Cc1ccccc1)NC(=O)[C@H](CC(C)C)[C@H](CSc1cccs1)C(=O)NO [BB94, 3(S)-(N-hydroxycarbamoyl)-2(R)-isobutyl-4-(2-thienylthio)butynyl-L-phenylalanine methylamide]	inhibits migration and growth of smooth muscle cells dose-dependently	inhibits migration and growth of smooth muscle cells dose-dependently	–	–	–
CNC(=O)[C@H](Cc1c[nH]c2ccccc12)NC(=O)[C@H](CC(=O)NO)CC(C)C [GM6001, 3-(N-hydroxycarbamoyl)-2(S)-isobutylpropionyl-L-tryptophan methylamide]	–	inhibits migration of smooth muscle cells	–	–	–
CCOCOC[C@H](C[C@H](C)C(=O)NO)NC(=O)c1ccc(Oc2ccccc2)cc1 [formula (II), N-hydroxy-5-ethoxymethyloxy-2(S)-methyl-4(S)-(4-phenoxybenzoyl)aminopentaneamide]	–	–	significantly inhibited	2000	significantly reduced
